Measured values as given in patent US10738028B2, “Spiro three-membered ring, spiro five-membered ring peptide deformylase inhibitor and use thereof in antibacteria and anti-tumor” (priority 2016, dated 2020).

Assays:
Format in all cases: cell-based
[1] = system: Enterococcus faecalis (EFA); assay: MIC, two-fold agar dilution (CLSI), clinical isolates
How it was run: (§1)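 Test samples were assayed by the CLSI-recommended two-fold agar dilution method, and the minimum inhibitory concentration against each tested strain was determined.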

[2] = system: Enterococcus faecium (EFM); assay: as above
How it was run: as §1

[3] = system: Escherichia coli (including ESBLs, non-ESBLs); assay: as above
How it was run: as §1

[4] = system: Moraxella catarrhalis (BCA); assay: as above
How it was run: as §1

[5] = system: Streptococcus pneoumoniae (SPN); assay: as above
How it was run: as §1

[6] = system: methicillin-resistant Staphylococcus aureus (MRSA); assay: as above
How it was run: as §1

[7] = system: methicillin-resistant Staphylococcus epidermidis (MRSE); assay: as above
How it was run: as §1

[8] = system: methicillin-sensitive Staphylococcus aureus (MSSA); assay: as above
How it was run: as §1

[9] = system: methicillin-sensitive Staphylococcus epidermidis (MSSE); assay: as above
How it was run: as §1

[10] = system: HCT-116 colorectal cancer cell line; assay: CCK-8 proliferation inhibition; conditions: 72 hours, CCK-8
How it was run: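 Viability read-out: 1:10 diluted CCK-8 after 72 h compound exposure at 37 °C, 5% CO2. Cells (2000/well, McCoy's 5A plus 10% newborn bovine serum) pre-cultured overnight; vehicle control 1‰ DMSO.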

[11] = system: A549 lung cancer cell line; assay: CCK-8 proliferation inhibition
How it was run: (§2)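 Plating at 2000 cells/well, then incubation overnight at 37° C. Next, a range of compound concentrations for 72 hours (control 1‰ DMSO). Finally, medium decanted and CCK-8 diluted 1:10 added.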

[12] = system: BEL-7402 liver cancer cell line; assay: CCK-8 proliferation inhibition
How it was run: as §2

[13] = system: HL60 acute myeloid leukemia cell line; assay: CCK-8 proliferation inhibition; conditions: Homo sapiens, HL-60, 72 hours
How it was run: as §2

[14] = system: Hela cervical cancer cell line; assay: CCK-8 proliferation inhibition; conditions: Homo sapiens, 72 hours
How it was run: as §2

[15] = system: Jurkat T cell leukemia cell line; assay: CCK-8 proliferation inhibition; conditions: Homo sapiens, 72 hours
How it was run: (§3)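 Growth inhibition measured by CCK-8 read-out after 72 h continuous compound treatment, 1‰ DMSO vehicle as control. Cells plated 2000/well the night before at 37 °C, 5% CO2; medium was 1640 for Jurkat and MGC-803, F12 for PC3, DMEM high glucose for MCF-7, each with 10% newborn bovine serum.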

[16] = system: MCF-7 breast cancer cell line; assay: CCK-8 proliferation inhibition; conditions: Homo sapiens, MCF7, 72 hours
How it was run: as §3

[17] = system: MGC-803 gastric cancer cell line; assay: CCK-8 proliferation inhibition
How it was run: as §3

[18] = system: PC3 prostate cancer cell line; assay: CCK-8 proliferation inhibition; conditions: 72 hours
How it was run: as §3

[19] = system: SAOS-2 osteosarcoma cell line; assay: CCK-8 proliferation inhibition; conditions: Homo sapiens, 72 hours, read-out: IC50 Steosarcoma SAOS-2
How it was run: as §3

[20] = MIC in vitro anti-bacterial experiments, Gram-positive bacteria; conditions: lowest MIC reached; read-out: minimum inhibitory concentration against Gram-positive bacteria
How it was run: as §1

[21] = concentration of 30 μM, 72 hours, 30 µM

## O=C(C[C@@H](CC1CCCC1)C(=O)N1CC2(CC2)C[C@H]1C(=O)Nc1ccc(F)cn1)NO [Example 64]
[1]; clinical isolate EFA 15-1
  Anti-bacterial activity (MIC), strain EFA 15-1: 32 µg/mL
[1]; clinical isolate EFA 15-2
  Anti-bacterial activity (MIC), strain EFA 15-2: 32 µg/mL
[1]; clinical isolate EFA 15-3
  Anti-bacterial activity (MIC), strain EFA 15-3: 32 µg/mL
[1]; clinical isolate EFA 15-4
  Anti-bacterial activity (MIC), strain EFA 15-4: 32 µg/mL
[1]; clinical isolate EFA 15-5
  Anti-bacterial activity (MIC), strain EFA 15-5: 32 µg/mL
[1]; clinical isolate EFA 15-6
  Anti-bacterial activity (MIC), strain EFA 15-6: 32 µg/mL
[1]; clinical isolate EFA 15-9
  Anti-bacterial activity (MIC), strain EFA 15-9: 4 µg/mL
[2]; clinical isolate EFM 15-1
  Anti-bacterial activity (MIC), strain EFM 15-1: 32 µg/mL
[2]; clinical isolate EFM 15-2
  Anti-bacterial activity (MIC), strain EFM 15-2: 32 µg/mL
[2]; clinical isolate EFM 15-3
  Anti-bacterial activity (MIC), strain EFM 15-3: 32 µg/mL
[2]; clinical isolate EFM 15-4
  Anti-bacterial activity (MIC), strain EFM 15-4: 1 µg/mL
[2]; clinical isolate EFM 15-5
  Anti-bacterial activity (MIC), strain EFM 15-5: 1 µg/mL
[2]; clinical isolate EFM 15-6
  Anti-bacterial activity (MIC), strain EFM 15-6: 1 µg/mL
[3]; clinical isolate ECO+ 15-1
  Anti-bacterial activity (MIC), strain ECO+ 15-1: 16 µg/mL
[3]; clinical isolate ECO+ 15-2
  Anti-bacterial activity (MIC), strain ECO+ 15-2: 32 µg/mL
[3]; clinical isolate ECO+ 15-3
  Anti-bacterial activity (MIC), strain ECO+ 15-3: 16 µg/mL
[3]; clinical isolate ECO+ 15-4
  Anti-bacterial activity (MIC), strain ECO+ 15-4: 16 µg/mL
[3]; clinical isolate ECO− 15-1
  Anti-bacterial activity (MIC), strain ECO− 15-1: 16 µg/mL
[3]; clinical isolate ECO− 15-2
  Anti-bacterial activity (MIC), strain ECO− 15-2: 16 µg/mL
[3]; clinical isolate ECO− 15-3
  Anti-bacterial activity (MIC), strain ECO− 15-3: 32 µg/mL
[3]; clinical isolate ECO− 15-4
  Anti-bacterial activity (MIC), strain ECO− 15-4: 16 µg/mL
[4]; clinical isolate BCA 14-1
  Anti-bacterial activity (MIC), strain BCA 14-1: 0.25 µg/mL
[4]; clinical isolate BCA 14-4
  Anti-bacterial activity (MIC), strain BCA 14-4: 1 µg/mL
[4]; clinical isolate BCA 14-5
  Anti-bacterial activity (MIC), strain BCA 14-5: 1 µg/mL
[4]; clinical isolate BCA 14-6
  Anti-bacterial activity (MIC), strain BCA 14-6: 1 µg/mL
[4]; clinical isolate BCA 14-7
  Anti-bacterial activity (MIC), strain BCA 14-7: 1 µg/mL
[4]; clinical isolate BCA 14-8
  Anti-bacterial activity (MIC), strain BCA 14-8: 0.125 µg/mL
[4]; clinical isolate BCA 14-10
  Anti-bacterial activity (MIC), strain BCA 14-10: 0.125 µg/mL
[5]; clinical isolate SPN 16-2
  Anti-bacterial activity (MIC), strain SPN 16-2: 0.125 µg/mL
[5]; clinical isolate SPN 16-4
  Anti-bacterial activity (MIC), strain SPN 16-4: 0.125 µg/mL
[6]; clinical isolate MRSA 15-1
  Anti-bacterial activity (MIC), strain MRSA 15-1: 0.03 µg/mL
[6]; clinical isolate MRSA 15-2
  Anti-bacterial activity (MIC), strain MRSA 15-2: 0.06 µg/mL
[6]; clinical isolate MRSA 15-3
  Anti-bacterial activity (MIC), strain MRSA 15-3: 0.03 µg/mL
[6]; clinical isolate MRSA 15-4
  Anti-bacterial activity (MIC), strain MRSA 15-4: 0.06 µg/mL
[7]; clinical isolate MRSE 15-1
  Anti-bacterial activity (MIC), strain MRSE 15-1: 0.06 µg/mL
[7]; clinical isolate MRSE 15-2
  Anti-bacterial activity (MIC), strain MRSE 15-2: 0.06 µg/mL
[7]; clinical isolate MRSE 15-3
  Anti-bacterial activity (MIC), strain MRSE 15-3: 0.06 µg/mL
[7]; clinical isolate MRSE 15-7
  Anti-bacterial activity (MIC), strain MRSE 15-7: 0.06 µg/mL
[8]; clinical isolate MSSA 15-3
  Anti-bacterial activity (MIC), strain MSSA 15-3: 0.06 µg/mL
[8]; clinical isolate MSSA 15-4
  Anti-bacterial activity (MIC), strain MSSA 15-4: 0.03 µg/mL
[8]; clinical isolate MSSA 15-5
  Anti-bacterial activity (MIC), strain MSSA 15-5: 0.03 µg/mL
[8]; clinical isolate MSSA 15-6
  Anti-bacterial activity (MIC), strain MSSA 15-6: 16 µg/mL
[9]; clinical isolate MSSE 15-3
  Anti-bacterial activity (MIC), strain MSSE 15-3: 0.03 µg/mL
[9]; clinical isolate MSSE 15-4
  Anti-bacterial activity (MIC), strain MSSE 15-4: 0.06 µg/mL
[9]; clinical isolate MSSE 15-5
  Anti-bacterial activity (MIC), strain MSSE 15-5: 0.06 µg/mL
[9]; clinical isolate MSSE 15-6
  Anti-bacterial activity (MIC), strain MSSE 15-6: > 0.008 µg/mL
[10]; Homo sapiens, HCT-116
  IC50: 4.88 µM
[10]; concentration of 30 μM, 30 µM
  HCT116 inhibition rate/%: 87%
[11]; Homo sapiens, A549, 72 h, concentration of 30 μM
  inhibition at 30 µM: > 50%
[11]; Homo sapiens, A549, 72 hours
  IC50: 4.86 µM
[11]; [21]
  Inhibition of proliferation, Lung cancer A549: 61%
[12]; Homo sapiens, Bel-7402, 72 hours
  IC50: 5 µM
[12]; [21]
  Inhibition of proliferation, Liver cancer BEL-7402: 81%
[13]
  IC50: 1.21 µM
[14]
  IC50: 11.5 µM
[15]
  IC50: 7.61 µM
[16]
  IC50: 6.62 µM
[17]; Homo sapiens, MGC-803, 72 h, concentration of 30 μM
  inhibition at 30 µM: > 50%
[17]; Homo sapiens, MGC-803, 72 hours
  IC50: 6.11 µM
[17]; [21]
  Inhibition of proliferation, Gastric cancer MGC-803: 63%
[18]
  IC50: 6.17 µM
[19]
  IC50: 2 µM
[20]
  MIC: < 0.008 µg/mL
